Laboratory results reported in patent publication US11518777B2, “Inhibitors of the shikimate pathway” (Eberhard Karls Universität Tübingen, priority 2017, dated 2022).

Experiments:
[1] = tested on: A. thaliana; experiment: Germination and seedling size of A. thaliana on agar containing inhibitor; details: for root and cotyledons formation: 260 μM (glyphosate equimolar)
[2] = tested on: Legionella; format: cell-based; details: natural water samples, 37° C., after ten days

Row | SMILES | gravitropism of the seedlings ([1]; 260 μM) | root and cotyledons formation [1] | size of the seedlings ([1]; 260 μM, 7 days of germination) [mm] | size of the seedlings compared to the control ([1]; 260 μM, 7 days of germination) | germination process ([1]; 130-260 μM) | inhibitory capacity on A. thaliana compared to glyphosate (seedling-size and morphological appearance) ([1]; concentrations higher than 130 μM (~25 μg/mL)) | growth inhibitory effects on A. thaliana ([1]; concentrations up to 50 μM, 7 days of germination) | number of CFUs of Legionella, times lower compared to the control [2]
1 | C[C@@H](O)[C@@H](O)[C@@H](O)[C@H](O)C(=O)CO [7dSh, 7-deoxy-D-altro-heptulose] | impaired in gravitropism | only minor root and cotyledons formation was observed | ~2 | three times lower | came to an arrest within the first days | significant increased inhibitory capacity | comparable to glyphosate | 4-5 times lower
2 | O=C(O)CNCP(=O)(O)O [glyphosate, reference compound] | – | developed further and showed more distinct root and cotyledons formation | – | – | – | – | – | –
